According to ChEMBL document CHEMBL3991601, “The target landscape of clinical kinase drugs” (Science, 2017):
Calls of active or inactive are those of the source. Rule as the data show it, for most assays here: actives have a measured Kd and inactives only a lower limit.

How the values were obtained:
[1] = target: Rho-associated protein kinase 2 (Homo sapiens, UniProt O75116)
[2] = target: Serine/threonine-protein kinase PAK 4 (Homo sapiens, UniProt O96013)
[3] = target: Proto-oncogene tyrosine-protein kinase receptor Ret (Homo sapiens, UniProt P07949)
[4] = target: cAMP-dependent protein kinase catalytic subunit beta (Homo sapiens, UniProt P22694)
[5] = target: Calcium/calmodulin-dependent protein kinase type II subunit delta (Homo sapiens, UniProt Q13557)
[6] = target: Tyrosine-protein kinase Lck (Homo sapiens, UniProt P06239)
[7] = target: T1, Discoidin domain-containing receptor 2 (Homo sapiens, UniProt Q16832)
T1 sequence (Q16832 whole entry): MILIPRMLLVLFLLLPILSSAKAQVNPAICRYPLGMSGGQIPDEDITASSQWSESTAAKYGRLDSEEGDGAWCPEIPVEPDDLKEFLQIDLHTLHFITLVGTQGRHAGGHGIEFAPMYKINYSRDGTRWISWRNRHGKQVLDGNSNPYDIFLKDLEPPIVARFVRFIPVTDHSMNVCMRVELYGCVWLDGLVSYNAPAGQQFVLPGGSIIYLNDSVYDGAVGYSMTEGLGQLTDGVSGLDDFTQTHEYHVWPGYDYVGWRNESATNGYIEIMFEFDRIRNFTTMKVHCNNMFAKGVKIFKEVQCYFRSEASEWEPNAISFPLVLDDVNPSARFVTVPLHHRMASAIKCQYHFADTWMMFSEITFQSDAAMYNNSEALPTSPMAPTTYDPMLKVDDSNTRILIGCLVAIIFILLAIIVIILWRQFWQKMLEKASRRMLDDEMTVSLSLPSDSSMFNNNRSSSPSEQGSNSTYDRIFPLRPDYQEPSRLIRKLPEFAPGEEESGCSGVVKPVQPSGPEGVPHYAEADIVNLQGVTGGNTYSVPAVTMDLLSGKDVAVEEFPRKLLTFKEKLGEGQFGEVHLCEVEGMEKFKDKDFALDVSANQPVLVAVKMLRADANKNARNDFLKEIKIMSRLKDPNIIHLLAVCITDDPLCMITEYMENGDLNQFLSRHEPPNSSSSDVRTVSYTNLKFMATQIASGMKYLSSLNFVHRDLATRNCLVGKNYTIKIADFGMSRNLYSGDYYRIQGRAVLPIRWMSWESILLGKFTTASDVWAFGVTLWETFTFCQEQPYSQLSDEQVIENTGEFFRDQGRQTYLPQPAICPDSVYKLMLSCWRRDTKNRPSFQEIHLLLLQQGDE

[8] = target: Serine/threonine-protein kinase MRCK beta (Homo sapiens, UniProt Q9Y5S2)
[9] = target: T2, Serine/threonine-protein kinase D3 (Homo sapiens, UniProt O94806)
T2 sequence (O94806 whole entry): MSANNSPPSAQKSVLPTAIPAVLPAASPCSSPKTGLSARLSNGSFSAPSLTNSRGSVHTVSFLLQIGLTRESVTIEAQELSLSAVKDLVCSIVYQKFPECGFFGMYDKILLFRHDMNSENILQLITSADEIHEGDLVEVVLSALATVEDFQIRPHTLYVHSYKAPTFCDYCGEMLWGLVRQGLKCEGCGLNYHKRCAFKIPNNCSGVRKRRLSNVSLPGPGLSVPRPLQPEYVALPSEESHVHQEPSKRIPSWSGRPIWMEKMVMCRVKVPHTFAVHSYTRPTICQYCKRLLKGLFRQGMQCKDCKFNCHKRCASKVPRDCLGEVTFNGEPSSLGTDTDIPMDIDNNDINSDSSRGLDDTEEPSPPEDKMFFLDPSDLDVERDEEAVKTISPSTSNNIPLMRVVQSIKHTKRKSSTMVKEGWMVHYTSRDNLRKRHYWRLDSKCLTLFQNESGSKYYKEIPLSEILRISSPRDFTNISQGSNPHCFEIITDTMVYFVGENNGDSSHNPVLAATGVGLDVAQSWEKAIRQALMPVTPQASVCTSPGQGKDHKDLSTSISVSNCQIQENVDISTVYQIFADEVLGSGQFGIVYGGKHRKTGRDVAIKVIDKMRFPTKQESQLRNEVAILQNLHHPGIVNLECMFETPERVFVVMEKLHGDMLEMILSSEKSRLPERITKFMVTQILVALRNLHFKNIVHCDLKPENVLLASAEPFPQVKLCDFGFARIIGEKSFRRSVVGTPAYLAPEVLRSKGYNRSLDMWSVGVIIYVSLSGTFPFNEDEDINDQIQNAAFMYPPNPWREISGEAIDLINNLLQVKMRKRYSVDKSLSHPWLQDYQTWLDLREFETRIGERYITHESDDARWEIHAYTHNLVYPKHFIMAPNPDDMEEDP

[10] = target: T3, Serine/threonine-protein kinase 4 (Homo sapiens, UniProt Q13043)
T3 sequence (Q13043 whole entry): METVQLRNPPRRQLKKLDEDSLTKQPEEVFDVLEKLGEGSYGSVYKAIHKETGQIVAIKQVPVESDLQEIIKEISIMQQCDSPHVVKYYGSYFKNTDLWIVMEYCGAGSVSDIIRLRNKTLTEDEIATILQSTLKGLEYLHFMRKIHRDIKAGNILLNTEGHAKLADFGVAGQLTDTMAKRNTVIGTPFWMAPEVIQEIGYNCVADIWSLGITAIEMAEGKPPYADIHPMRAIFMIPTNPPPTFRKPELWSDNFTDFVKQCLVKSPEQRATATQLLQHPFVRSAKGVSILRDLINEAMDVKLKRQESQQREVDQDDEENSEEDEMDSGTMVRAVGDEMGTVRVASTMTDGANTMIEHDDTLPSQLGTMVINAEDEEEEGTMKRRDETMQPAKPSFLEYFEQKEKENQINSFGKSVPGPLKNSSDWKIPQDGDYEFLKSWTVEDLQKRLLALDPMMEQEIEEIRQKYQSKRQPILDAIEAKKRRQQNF
Also: in the data inactive means no Kd found up to 30 µM.

Proto-oncogene tyrosine-protein kinase receptor Ret, sequence (P07949 whole entry): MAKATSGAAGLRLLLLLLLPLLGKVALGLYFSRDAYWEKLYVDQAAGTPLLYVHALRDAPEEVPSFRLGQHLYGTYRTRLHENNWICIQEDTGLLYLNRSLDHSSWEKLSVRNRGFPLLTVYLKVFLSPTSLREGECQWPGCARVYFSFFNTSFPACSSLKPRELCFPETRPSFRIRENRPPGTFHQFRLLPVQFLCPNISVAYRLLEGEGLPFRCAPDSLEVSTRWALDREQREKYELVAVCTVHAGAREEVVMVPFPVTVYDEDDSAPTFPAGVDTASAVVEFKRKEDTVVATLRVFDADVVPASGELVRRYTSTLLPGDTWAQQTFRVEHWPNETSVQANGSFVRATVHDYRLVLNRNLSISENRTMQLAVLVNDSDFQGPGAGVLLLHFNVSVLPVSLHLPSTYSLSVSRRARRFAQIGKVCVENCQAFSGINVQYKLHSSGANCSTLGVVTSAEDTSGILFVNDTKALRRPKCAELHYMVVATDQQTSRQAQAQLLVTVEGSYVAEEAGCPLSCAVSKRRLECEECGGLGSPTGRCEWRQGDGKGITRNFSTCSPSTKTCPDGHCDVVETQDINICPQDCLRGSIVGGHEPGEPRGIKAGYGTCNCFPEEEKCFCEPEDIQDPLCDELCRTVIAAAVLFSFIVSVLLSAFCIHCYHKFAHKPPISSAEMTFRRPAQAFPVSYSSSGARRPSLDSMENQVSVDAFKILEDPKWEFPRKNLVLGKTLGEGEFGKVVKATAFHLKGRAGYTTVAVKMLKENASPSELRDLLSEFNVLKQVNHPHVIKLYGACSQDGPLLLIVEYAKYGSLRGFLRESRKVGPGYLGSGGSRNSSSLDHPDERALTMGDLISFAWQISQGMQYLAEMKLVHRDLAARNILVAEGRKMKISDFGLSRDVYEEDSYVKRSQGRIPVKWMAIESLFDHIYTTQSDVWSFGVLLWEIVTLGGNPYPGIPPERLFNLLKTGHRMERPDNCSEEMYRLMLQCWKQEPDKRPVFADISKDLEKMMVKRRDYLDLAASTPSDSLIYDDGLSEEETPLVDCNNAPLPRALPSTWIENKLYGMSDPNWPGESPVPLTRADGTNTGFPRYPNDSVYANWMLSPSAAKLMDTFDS
Rho-associated protein kinase 2, sequence (O75116 whole entry): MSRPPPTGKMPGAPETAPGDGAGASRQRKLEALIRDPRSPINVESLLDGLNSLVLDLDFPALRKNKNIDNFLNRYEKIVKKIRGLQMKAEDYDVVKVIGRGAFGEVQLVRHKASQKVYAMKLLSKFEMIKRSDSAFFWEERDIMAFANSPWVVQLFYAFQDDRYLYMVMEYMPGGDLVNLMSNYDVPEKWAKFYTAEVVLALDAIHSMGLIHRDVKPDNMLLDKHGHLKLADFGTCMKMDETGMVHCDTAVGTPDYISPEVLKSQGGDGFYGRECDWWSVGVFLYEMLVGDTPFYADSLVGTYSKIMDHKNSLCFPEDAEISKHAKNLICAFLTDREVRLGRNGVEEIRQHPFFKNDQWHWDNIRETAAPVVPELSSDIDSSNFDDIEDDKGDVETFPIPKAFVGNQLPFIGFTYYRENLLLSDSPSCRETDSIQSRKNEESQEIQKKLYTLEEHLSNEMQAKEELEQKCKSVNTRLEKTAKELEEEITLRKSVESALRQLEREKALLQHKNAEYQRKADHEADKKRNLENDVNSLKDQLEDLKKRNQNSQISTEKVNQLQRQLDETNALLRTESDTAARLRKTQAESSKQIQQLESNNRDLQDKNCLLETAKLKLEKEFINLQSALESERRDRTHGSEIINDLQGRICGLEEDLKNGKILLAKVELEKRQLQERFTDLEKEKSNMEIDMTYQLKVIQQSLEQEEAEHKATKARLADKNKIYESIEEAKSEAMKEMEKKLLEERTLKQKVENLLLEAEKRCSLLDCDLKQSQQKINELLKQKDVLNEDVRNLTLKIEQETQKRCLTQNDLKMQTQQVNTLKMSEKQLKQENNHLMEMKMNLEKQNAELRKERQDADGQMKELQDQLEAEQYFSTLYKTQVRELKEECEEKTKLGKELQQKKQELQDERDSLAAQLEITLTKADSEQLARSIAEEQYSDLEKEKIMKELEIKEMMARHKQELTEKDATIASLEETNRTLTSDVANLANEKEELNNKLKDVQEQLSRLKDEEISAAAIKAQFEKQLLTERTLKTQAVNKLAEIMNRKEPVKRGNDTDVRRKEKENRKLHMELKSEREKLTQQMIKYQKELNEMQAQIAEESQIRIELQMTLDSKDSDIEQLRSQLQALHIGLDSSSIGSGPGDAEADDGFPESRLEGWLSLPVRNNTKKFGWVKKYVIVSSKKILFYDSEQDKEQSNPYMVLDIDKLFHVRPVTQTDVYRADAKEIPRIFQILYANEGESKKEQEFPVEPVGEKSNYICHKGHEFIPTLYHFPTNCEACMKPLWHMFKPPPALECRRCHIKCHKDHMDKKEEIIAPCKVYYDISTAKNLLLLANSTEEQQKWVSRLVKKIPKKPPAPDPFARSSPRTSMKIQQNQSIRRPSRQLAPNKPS
Calcium/calmodulin-dependent protein kinase type II subunit delta, sequence (Q13557 whole entry): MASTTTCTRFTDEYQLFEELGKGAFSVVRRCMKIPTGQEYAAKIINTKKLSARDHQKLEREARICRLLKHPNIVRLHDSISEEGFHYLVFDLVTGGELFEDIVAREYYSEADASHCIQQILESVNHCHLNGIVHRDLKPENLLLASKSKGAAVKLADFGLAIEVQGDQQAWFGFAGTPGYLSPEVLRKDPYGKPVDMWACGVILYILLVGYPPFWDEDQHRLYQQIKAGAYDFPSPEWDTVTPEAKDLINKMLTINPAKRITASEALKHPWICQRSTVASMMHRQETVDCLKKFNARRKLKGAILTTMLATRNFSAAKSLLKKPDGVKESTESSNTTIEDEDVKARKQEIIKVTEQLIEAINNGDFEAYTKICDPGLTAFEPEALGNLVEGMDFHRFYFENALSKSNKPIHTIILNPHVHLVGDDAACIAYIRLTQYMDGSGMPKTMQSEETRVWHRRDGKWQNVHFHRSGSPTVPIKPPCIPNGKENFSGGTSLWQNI
Serine/threonine-protein kinase MRCK beta, sequence (Q9Y5S2 whole entry): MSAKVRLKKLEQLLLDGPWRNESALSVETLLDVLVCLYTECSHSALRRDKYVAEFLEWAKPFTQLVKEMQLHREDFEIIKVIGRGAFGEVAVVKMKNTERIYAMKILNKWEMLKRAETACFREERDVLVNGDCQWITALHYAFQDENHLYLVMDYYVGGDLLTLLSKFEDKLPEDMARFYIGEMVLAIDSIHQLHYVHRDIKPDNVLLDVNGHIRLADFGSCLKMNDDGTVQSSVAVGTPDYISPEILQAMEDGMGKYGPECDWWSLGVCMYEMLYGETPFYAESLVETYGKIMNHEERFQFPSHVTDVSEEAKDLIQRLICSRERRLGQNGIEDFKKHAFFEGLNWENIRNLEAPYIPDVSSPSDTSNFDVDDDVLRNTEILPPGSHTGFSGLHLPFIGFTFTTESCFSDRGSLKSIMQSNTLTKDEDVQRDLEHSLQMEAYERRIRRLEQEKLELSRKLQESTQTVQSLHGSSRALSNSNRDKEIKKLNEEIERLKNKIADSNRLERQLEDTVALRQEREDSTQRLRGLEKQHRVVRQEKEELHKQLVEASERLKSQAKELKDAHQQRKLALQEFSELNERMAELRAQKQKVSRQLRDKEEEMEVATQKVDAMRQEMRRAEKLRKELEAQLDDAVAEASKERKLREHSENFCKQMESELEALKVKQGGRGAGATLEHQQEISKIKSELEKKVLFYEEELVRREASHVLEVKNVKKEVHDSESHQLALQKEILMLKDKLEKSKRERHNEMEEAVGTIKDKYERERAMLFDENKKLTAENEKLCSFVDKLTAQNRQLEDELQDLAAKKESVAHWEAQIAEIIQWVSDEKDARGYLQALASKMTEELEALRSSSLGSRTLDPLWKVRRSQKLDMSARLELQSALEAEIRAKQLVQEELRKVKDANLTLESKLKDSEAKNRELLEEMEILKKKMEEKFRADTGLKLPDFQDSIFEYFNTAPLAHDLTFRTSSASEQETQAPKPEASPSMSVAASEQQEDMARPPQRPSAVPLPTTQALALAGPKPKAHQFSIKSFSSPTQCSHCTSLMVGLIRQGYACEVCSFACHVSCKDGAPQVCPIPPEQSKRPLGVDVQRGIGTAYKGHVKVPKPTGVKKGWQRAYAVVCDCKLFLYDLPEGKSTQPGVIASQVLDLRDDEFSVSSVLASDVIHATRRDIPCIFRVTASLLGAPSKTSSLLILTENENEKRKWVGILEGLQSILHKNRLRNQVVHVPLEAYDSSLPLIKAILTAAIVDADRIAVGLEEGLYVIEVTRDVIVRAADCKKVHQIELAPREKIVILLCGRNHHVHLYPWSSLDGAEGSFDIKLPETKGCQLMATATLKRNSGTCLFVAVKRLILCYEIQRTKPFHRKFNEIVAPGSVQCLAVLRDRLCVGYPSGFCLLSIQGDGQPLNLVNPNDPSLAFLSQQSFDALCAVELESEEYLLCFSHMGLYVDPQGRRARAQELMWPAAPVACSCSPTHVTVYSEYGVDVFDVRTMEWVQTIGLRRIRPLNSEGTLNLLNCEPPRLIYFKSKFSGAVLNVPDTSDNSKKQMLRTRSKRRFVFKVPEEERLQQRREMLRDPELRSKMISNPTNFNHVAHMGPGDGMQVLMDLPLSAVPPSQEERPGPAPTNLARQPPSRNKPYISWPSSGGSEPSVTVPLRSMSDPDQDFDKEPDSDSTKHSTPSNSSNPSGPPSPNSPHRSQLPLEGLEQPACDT

| Kd [1] | Kd [2] | Kd [3] | Kd [4] | Kd [5] | Kd [6] | Kd [7] | Kd [8] | Kd [9] | Kd [10] | SMILES |
| --- | --- | --- | --- | --- | --- | --- | --- | --- | --- | --- |
| > 30 µM (inactive) | > 30 µM (inactive) | > 30 µM (inactive) | > 30 µM (inactive) | > 30 µM (inactive) | > 30 µM (inactive) | > 30 µM (inactive) | > 30 µM (inactive) | > 30 µM (inactive) | > 30 µM (inactive) | Cc1cnc(NC(=O)Nc2cc(Br)c(C)cc2OC[C@@H]2CNCCO2)cn1 [RABUSERTIB] |
| > 30 µM (inactive) | > 30 µM (inactive) | 0.064 µM (active) | > 30 µM (inactive) | > 30 µM (inactive) | 0.207 µM (active) | 1.52 µM (active) | > 30 µM (inactive) | > 30 µM (inactive) | > 30 µM (inactive) | COc1cc2c(Nc3ccc(Cl)c(Cl)c3F)ncnc2cc1OC[C@@H]1C[C@@H]2CN(C)C[C@@H]2C1 [TESEVATINIB] |
| > 30 µM (inactive) | > 30 µM (inactive) | > 30 µM (inactive) | > 30 µM (inactive) | > 30 µM (inactive) | > 30 µM (inactive) | > 30 µM (inactive) | > 30 µM (inactive) | > 30 µM (inactive) | > 30 µM (inactive) | O=C(Cc1ccc(-c2ccc(OCCN3CCOCC3)cc2)cn1)NCc1ccccc1 [TIRBANIBULIN] |
| > 30 µM (inactive) | > 30 µM (inactive) | > 30 µM (inactive) | > 30 µM (inactive) | > 30 µM (inactive) | > 30 µM (inactive) | > 30 µM (inactive) | > 30 µM (inactive) | > 30 µM (inactive) | > 30 µM (inactive) | O=C1NC(=O)[C@@H](c2cn3c4c(cccc24)CCC3)[C@@H]1c1c[nH]c2ccccc12 [TIVANTINIB] |
| > 30 µM (inactive) | > 30 µM (inactive) | > 30 µM (inactive) | > 30 µM (inactive) | > 30 µM (inactive) | > 30 µM (inactive) | 0.227 µM (active) | > 30 µM (inactive) | > 30 µM (inactive) | > 30 µM (inactive) | C[C@@H](NC(=O)c1ncnc(N)c1Cl)c1ncc(C(=O)Nc2cc(C(F)(F)F)c(Cl)cn2)s1 [TOVORAFENIB] |
| 2.28 µM (active) | > 30 µM (inactive) | > 30 µM (inactive) | 0.049 µM (active) | > 30 µM (inactive) | > 30 µM (inactive) | > 30 µM (inactive) | > 30 µM (inactive) | 2.64 µM (active) | > 30 µM (inactive) | Cn1ncc(Cl)c1-c1cc(C(=O)N[C@H](CN)Cc2ccc(F)c(F)c2)oc1Cl [UPROSERTIB] |
| 59 µM | > 30 µM (inactive) | 21.9 µM | > 30 µM (inactive) | > 30 µM (inactive) | > 30 µM (inactive) | > 30 µM (inactive) | 46.9 µM | 0.557 µM (active) | 1.8 µM (active) | CN1C/C=C/CCOc2cccc(c2)-c2ccnc(n2)Nc2cccc(c2)C1 [ZOTIRACICLIB] |

More lines, now with the values behind:

| SMILES | Kd [1] | Kd [2] | Kd [3] | Kd [4] | Kd [5] | Kd [6] | Kd [7] | Kd [8] | Kd [9] | Kd [10] |
| --- | --- | --- | --- | --- | --- | --- | --- | --- | --- | --- |
| CO[C@H]1C[C@@H]2CC[C@@H](C)[C@@](O)(O2)C(=O)C(=O)N2CCCC[C@H]2C(=O)O[C@H]([C@H](C)C[C@@H]2CC[C@@H](OP(C)(C)=O)[C@H](OC)C2)CC(=O)[C@H](C)/C=C(\C)[C@@H](O)[C@@H](OC)C(=O)[C@H](C)C[C@H](C)/C=C/C=C/C=C/1C [RIDAFOROLIMUS] | > 30 µM (inactive) | > 30 µM (inactive) | > 30 µM (inactive) | > 30 µM (inactive) | > 30 µM (inactive) | > 30 µM (inactive) | > 30 µM (inactive) | > 30 µM (inactive) | > 30 µM (inactive) | > 30 µM (inactive) |
| N#CC1(c2ccc(NC(=O)c3cccnc3NCc3ccncc3)cc2)CCCC1 [RIVOCERANIB] | > 30 µM (inactive) | > 30 µM (inactive) | 0.111 µM (active) | > 30 µM (inactive) | > 30 µM (inactive) | > 30 µM (inactive) | > 30 µM (inactive) | > 30 µM (inactive) | > 30 µM (inactive) | > 30 µM (inactive) |
| O=c1[nH]ccc2cc(OC3CCNCC3)ccc12 [SAR-407899 FREE BASE] | 0.016 µM (active) | > 30 µM (inactive) | > 30 µM (inactive) | > 30 µM (inactive) | > 30 µM (inactive) | > 30 µM (inactive) | > 30 µM (inactive) | 0.016 µM (active) | > 30 µM (inactive) | > 30 µM (inactive) |
| Cn1cc(-c2cnn3c(N)c(Br)c([C@@H]4CCCNC4)nc23)cn1 [SCH-900776] | > 30 µM (inactive) | 2.9 µM | 2.55 µM | > 30 µM (inactive) | > 30 µM (inactive) | > 30 µM (inactive) | > 30 µM (inactive) | > 30 µM (inactive) | > 30 µM (inactive) | > 30 µM (inactive) |
| CO[C@H]1C[C@@H]2CC[C@@H](C)[C@@](O)(O2)C(=O)C(=O)N2CCCC[C@H]2C(=O)O[C@H]([C@H](C)C[C@@H]2CC[C@@H](O)[C@H](OC)C2)CC(=O)[C@H](C)/C=C(\C)[C@@H](O)[C@@H](OC)C(=O)[C@H](C)C[C@H](C)/C=C/C=C/C=C/1C [SIROLIMUS] | > 30 µM (inactive) | > 30 µM (inactive) | > 30 µM (inactive) | > 30 µM (inactive) | > 30 µM (inactive) | > 30 µM (inactive) | > 30 µM (inactive) | > 30 µM (inactive) | > 30 µM (inactive) | > 30 µM (inactive) |
| CO[C@H]1C[C@@H]2CC[C@@H](C)[C@@](O)(O2)C(=O)C(=O)N2CCCC[C@H]2C(=O)O[C@H]([C@H](C)C[C@@H]2CC[C@@H](OC(=O)C(C)(CO)CO)[C@H](OC)C2)CC(=O)[C@H](C)/C=C(\C)[C@@H](O)[C@@H](OC)C(=O)[C@H](C)C[C@H](C)/C=C/C=C/C=C/1C [TEMSIROLIMUS] | > 30 µM (inactive) | > 30 µM (inactive) | > 30 µM (inactive) | > 30 µM (inactive) | > 30 µM (inactive) | > 30 µM (inactive) | > 30 µM (inactive) | > 30 µM (inactive) | > 30 µM (inactive) | > 30 µM (inactive) |
| Cc1cc(Nc2ncnc3ccc(NC4=NC(C)(C)CO4)cc23)ccc1Oc1ccn2ncnc2c1 [TUCATINIB] | > 30 µM (inactive) | > 30 µM (inactive) | > 30 µM (inactive) | > 30 µM (inactive) | > 30 µM (inactive) | > 30 µM (inactive) | > 30 µM (inactive) | > 30 µM (inactive) | > 30 µM (inactive) | > 30 µM (inactive) |
